*1 amine or outer side, *2 acyl side, *3 side chain or, on linkers, in order; H or OH if unused. Where a SMILES comes first, the peptide text is derived from it. Bridges are numbered along the chain shown (N, C = ends). [ ]: non-standard residue; d: D form. The star is where a group is joined. X2 = C[C@H]1CC[C@@H](N2CCN(c3ccc(-c4nnc(-c5ccc(C(=O)*)cc5)s4)cc3)CC2)CC1; X1 = O=C(c1ccc(-c2nnc(-c3ccc(N4CCN(C5CCCCC5)CC4)cc3)s2)cc1)*; Orn(3R-OH,Nδ-CH(CH2OH)2) = N[C@H](C(=O)O)[C@H](O)CCNC(CO)CO; hTyr(βR-OH,3-OMe) = COc1cc(C[C@@H](O)[C@H](N)C(=O)O)ccc1O; Orn(4R-OH) = O=C([C@H](C[C@@H](O)CN[*:3])N[*:1])[*:2]; Pro(3S-OH,4S-Me) = C[C@H]1CN[C@H](C(=O)O)[C@H]1O; Orn(3R-OH) = NCC[C@@H](O)[C@H](N)C(=O)O; Hyp = O=C(O)[C@@H]1C[C@@H](O)CN1

The test system of this assay is Candida albicans FP-633. The format is cell-based. The settings on record: FP-633, pH 7.3. The procedure:
In vitro antimicrobial activity of the object compound of Examples 1, 7, 12 and 19 disclosed later was determined by MICs in mouse serum as described below.
The MIC5 in mouse serum were determined by the microdilution method using ICR mouse serum buffered with 20 mM HEPES buffer (pH 7.3) as a test medium. Inoculum suspension of 10^6 cells/ml were prepared by a hemocytometric procedure and diluted to obtain an inoculum size of approximately 1.0×10^3 cells/ml. Microplates were incubated at 37° C. for […] in 5% CO2. The MICs was defined as the lowest concentrations at which no visible growth was observed.

A word on the MIC: it is the least concentration at which growth counts as inhibited. Molecule `COc1cc(C[C@@H](O)[C@@H]2NC(=O)[C@@H]3C[C@@H](O)CN3C(=O)[C@H]([C@@H](C)O)NC(=O)[C@@H](NC(=O)c3ccc(-c4nnc(-c5ccc(N6CCN([C@H]7CC[C@@H](C)CC7)CC6)cc5)s4)cc3)C[C@@H](O)CNC(=O)[C@@H]3[C@@H](O)[C@@H](C)CN3C(=O)[C@H]([C@H](O)CCN)NC2=O)ccc1O` [Example 1] (X2-[Orn(4R-OH)]T[Hyp][hTyr(βR-OH,3-OMe)][Orn(3R-OH)][Pro(3S-OH,4S-Me)]; lactam 1-C) came in with a minimum inhibitory concentration (MIC) below 0.2 µg/mL. The value for `COc1cc(C[C@@H](O)[C@@H]2NC(=O)[C@@H]3C[C@@H](O)CN3C(=O)[C@H]([C@@H](C)O)NC(=O)[C@@H](NC(=O)c3ccc(-c4nnc(-c5ccc(N6CCN(C7CCCCC7)CC6)cc5)s4)cc3)C[C@@H](O)CNC(=O)[C@@H]3[C@@H](O)[C@@H](C)CN3C(=O)[C@H]([C@H](O)CCN)NC2=O)ccc1O` [Example 7] (X1-[Orn(4R-OH)]T[Hyp][hTyr(βR-OH,3-OMe)][Orn(3R-OH)][Pro(3S-OH,4S-Me)]; lactam 1-C) was below 0.2 µg/mL; that for `COc1cc(C[C@@H](O)[C@@H]2NC(=O)[C@@H]3C[C@@H](O)CN3C(=O)[C@H]([C@@H](C)O)NC(=O)[C@@H](NC(=O)c3ccc(-c4nnc(-c5ccc(N6CCN([C@H]7CC[C@@H](C)CC7)CC6)cc5)s4)cc3)C[C@@H](O)CNC(=O)[C@@H]3[C@@H](O)[C@@H](C)CN3C(=O)[C@H]([C@H](O)CCNC(CO)CO)NC2=O)ccc1O` [Example 19] (X2-[Orn(4R-OH)]T[Hyp][hTyr(βR-OH,3-OMe)][Orn(3R-OH,Nδ-CH(CH2OH)2)][Pro(3S-OH,4S-Me)]; lactam 1-C) was below 0.2 µg/mL.

The record behind these values is patent publication US20050014685A1, “New compound” (FUJISAWA PHARMACEUTICAL CO., LTD., priority 2003, published 2005).
